The target of this experiment is p97/VCP (Homo sapiens, UniProt P55072). The experiment can be described thus: cell-free ATPase assay on purified recombinant p97/VCP. It counts as biochemical.
p97/VCP, sequence (P55072 2-806): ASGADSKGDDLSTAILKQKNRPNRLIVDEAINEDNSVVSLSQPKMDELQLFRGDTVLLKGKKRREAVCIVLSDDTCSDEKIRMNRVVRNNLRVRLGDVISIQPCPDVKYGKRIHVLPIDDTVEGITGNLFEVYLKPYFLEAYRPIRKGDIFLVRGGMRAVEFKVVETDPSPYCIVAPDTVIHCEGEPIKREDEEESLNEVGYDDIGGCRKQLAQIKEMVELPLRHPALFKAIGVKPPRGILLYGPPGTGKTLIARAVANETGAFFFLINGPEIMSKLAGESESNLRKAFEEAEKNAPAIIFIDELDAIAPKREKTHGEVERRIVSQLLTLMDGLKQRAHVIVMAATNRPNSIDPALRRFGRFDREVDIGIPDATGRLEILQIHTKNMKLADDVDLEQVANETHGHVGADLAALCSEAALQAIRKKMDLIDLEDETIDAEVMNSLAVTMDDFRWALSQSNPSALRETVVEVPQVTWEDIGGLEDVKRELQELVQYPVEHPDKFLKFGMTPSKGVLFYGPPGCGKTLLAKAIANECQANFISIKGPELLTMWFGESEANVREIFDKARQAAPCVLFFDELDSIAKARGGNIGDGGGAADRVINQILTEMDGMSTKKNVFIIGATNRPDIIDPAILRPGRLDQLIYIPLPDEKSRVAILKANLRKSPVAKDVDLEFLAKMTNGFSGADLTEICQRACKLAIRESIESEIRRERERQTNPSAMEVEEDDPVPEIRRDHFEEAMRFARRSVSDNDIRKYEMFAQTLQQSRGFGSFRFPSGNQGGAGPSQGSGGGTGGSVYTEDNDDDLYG

For orientation: IC50 means the concentration that gives 50% inhibition. On to `c1ccc(CNc2nc(NCc3ccccc3)c3ccccc3n2)cc1` [DBeQ], for which the IC50 amounted to 6.99 ± 0.5 µM.

The values are drawn from article PMC6778635 (Cancer Science, 2019).
